In US8455475B2 (Gruenenthal GmbH, priority 2009, dated 2013):

Target: T1, rat B1R (bradykinin receptor 1) (Rattus norvegicus, UniProt P97583)
T1 construct: expressed in transfected cells; host or cells: CHO K1 cells
T1 sequence (P97583 1-337): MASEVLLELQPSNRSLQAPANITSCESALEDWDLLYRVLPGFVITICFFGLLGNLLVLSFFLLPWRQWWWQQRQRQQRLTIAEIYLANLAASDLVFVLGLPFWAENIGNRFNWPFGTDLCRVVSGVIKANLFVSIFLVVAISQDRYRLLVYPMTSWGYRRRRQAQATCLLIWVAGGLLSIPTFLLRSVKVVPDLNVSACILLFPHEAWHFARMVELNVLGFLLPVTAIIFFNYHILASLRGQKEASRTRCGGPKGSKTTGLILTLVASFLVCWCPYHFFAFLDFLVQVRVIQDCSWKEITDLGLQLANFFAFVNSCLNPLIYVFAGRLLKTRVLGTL
Assay: FLIPR Ca2+ assay (Fluo-4) on CHO K1 cells stably transfected with the B1R gene of the rat (rB1R cells): % inhibition at 10 μM / IC50, agonist Des-Arg9-bradykinin
Assay type: cell-based
Settings: CHO-K1, rat B1R
How it was run: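 Stably transfected CHO K1 cells loaded with Fluo-4 and read on FLIPR (λex 488, λem 540 nm; peak fluorescence). Test substance (10 μM) added first, then after 10–20 min the agonist at EC80; % inhibition versus maximum achievable inhibition. IC50 from several concentrations, n=2–3, N≥2.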

| Molecule | inhibition at 10 µM |
| --- | --- |
| COc1ccc(CN2CCC3(CC2)CCN(C(=O)c2ccc4c(c2)C(NC(=O)c2cc(C(F)(F)F)ccc2Cl)CC4)CC3)cc1F (stereo not drawn) [IND_CC-648, 2-Chloro-N-[6-[9-[(3-fluoro-4-methoxy-phenyl)-methyl]-3,9-diazaspiro[5.5]-undecane-3-carbonyl]-2,3-dihydro-1H-inden-1-yl]-5-(trifluoromethyl)benzamide] | 78% |
| O=C(NC1CCc2ccc(C(=O)N3CCC4(CCN(Cc5ccc6ncccc6c5)CC4)C3)cc21)c1sccc1Cl (stereo not drawn) [IND_CC-570, 3-Chloro-N-[6-[8-(quinolin-6-yl-methyl)-2,8-diazaspiro[4.5]decane-2-carbonyl]-2,3-dihydro-1H-inden-1-yl]-thiophene-2-carboxylic acid amide] | 57% |
| Cc1ccccc1C(=O)N(C)C1CCc2ccc(C(=O)N3CCC4(CC3)CCN(c3ccncc3)CC4)cc21 (stereo not drawn) [IND_CC-345, N,2-Dimethyl-N-[6-(9-pyridin-4-yl-3,9-diazaspiro[5.5]undecane-3-carbonyl)-2,3-dihydro-1H-inden-1-yl]-benzamide] | 105% |
| Cc1c(CN2CCC3(CC2)CCN(C(=O)c2ccc4c(c2)C(NC(=O)c2cccc(Cl)c2Cl)CC4)C3)cnn1C (stereo not drawn) [IND_CC-722, 2,3-Dichloro-N-[6-[8-[(1,5-dimethyl-1H-pyrazol-4-yl)-methyl]-2,8-diazaspiro[4.5]decane-2-carbonyl]-2,3-dihydro-1H-inden-1-yl]-benzamide] | 81% |
| CC(=O)NC1CCc2ccc(C(=O)N3CCC4(CCN(c5ccncc5)CC4)C3)cc21 (stereo not drawn) [IND_CC-375, N-[6-(8-Pyridin-4-yl-2,8-diazaspiro[4.5]decane-2-carbonyl)-2,3-dihydro-1H-inden-1-yl]-acetamide] | 59% |
| CN(C)c1ncc(CN2CCC3(CC2)CCN(C(=O)c2ccc4c(c2)C(NC(=O)c2c(F)cccc2Cl)CC4)C3)cn1 (stereo not drawn) [IND_CC-773, 2-Chloro-N-[6-[8-[(2-dimethylamino-pyrimidin-5-yl)-methyl]-2,8-diazaspiro-[4.5]decane-2-carbonyl]-2,3-dihydro-1H-inden-1-yl]-6-fluoro-benzamide] | 80% |
| O=C(NC1CCc2ccc(C(=O)N3CCC4(CCN(Cc5c[nH]cn5)CC4)CC3)cc21)c1cc(C(F)(F)F)ccc1Cl (stereo not drawn) [IND_CC-639, 2-Chloro-N-[6-[9-(1H-imidazol-4-yl-methyl)-3,9-diazaspiro[5.5]undecane-3-carbonyl]-2,3-dihydro-1H-inden-1-yl]-5-(trifluoromethyl)-benzamide] | 78% |
| CCn1cc(CN2CCC3(CC2)CCN(C(=O)c2ccc4c(c2)C(NC(=O)c2c(C)cccc2Cl)CC4)C3)c(C)n1 (stereo not drawn) [IND_CC-762, 2-Chloro-N-[6-[8-[(1-ethyl-3-methyl-1H-pyrazol-4-yl)-methyl]-2,8-diazaspiro-[4.5]decane-2-carbonyl]-2,3-dihydro-1H-inden-1-yl]-6-methyl-benzamide] | 55% |
| CN(C(=O)c1ccccc1Cl)C1CCc2ccc(C(=O)N3CCC4(CCN(Cc5ccc(F)c(F)c5)CC4)C3)cc21 (stereo not drawn) [IND_CC-549, 2-Chloro-N-[6-[8-[(3,4-difluoro-phenyl)-methyl]-2,8-diazaspiro[4.5]decane-2-carbonyl]-2,3-dihydro-1H-inden-1-yl]-N-methyl-benzamide] | 60% |
| O=C(NC1CCc2ccc(C(=O)N3CCC4(CC3)CCN(c3ccncc3)CC4)cc21)c1c(F)cccc1F (stereo not drawn) [IND_CC-383, 2,6-Difluoro-N-[6-(9-pyridin-4-yl-3,9-diazaspiro[5.5]undecane-3-carbonyl)-2,3-dihydro-1H-inden-1-yl]-benzamide] | 102% |
| Cc1cccc(Cl)c1S(=O)(=O)N(C)C1CCc2ccc(C(=O)N3CCC4(CC3)CCN(c3ccncc3)CC4)cc21 (stereo not drawn) [IND_CC-227, 2-Chloro-N,6-dimethyl-N-[6-(9-pyridin-4-yl-3,9-diazaspiro[5.5]undecane-3-carbonyl)-2,3-dihydro-1H-inden-1-yl]-benzenesulfonic acid amide] | 97% |
| O=C(Nc1cc(F)cc(F)c1)N1CCC2(CC1)CCN(C(=O)c1ccc3c(c1)C(N(C(=O)c1ccccc1Cl)C1CC1)CC3)C2 (stereo not drawn) [IND_CC-720, 2-[3-[(2-Chloro-benzoyl)-cyclopropyl-amino]-2,3-dihydro-1H-indene-5-carbonyl]-N-(3,5-difluoro-phenyl)-2,8-diazaspiro[4.5]decane-8-carboxylic acid amide] | 80% |
| O=C(NC1CCc2ccc(C(=O)N3CCC4(CCN(Cc5ccc(F)cc5F)CC4)C3)cc21)c1cc(Cl)ccc1F (stereo not drawn) [IND_CC-622, 5-Chloro-N-[6-[8-[(2,4-difluoro-phenyl)-methyl]-2,8-diazaspiro[4.5]decane-2-carbonyl]-2,3-dihydro-1H-inden-1-yl]-2-fluoro-benzamide] | 69% |
| O=C(NC1CCc2ccc(C(=O)N3CCC4(CCN(Cc5ccc(F)cc5Cl)CC4)CC3)cc21)c1cccc(Cl)c1Cl (stereo not drawn) [IND_CC-726, 2,3-Dichloro-N-[6-[9-[(2-chloro-4-fluoro-phenyl)-methyl]-3,9-diazaspiro[5.5]undecane-3-carbonyl]-2,3-dihydro-1H-inden-1-yl]-benzamide] | 67% |
| CCn1cc(CN2CCC3(CC2)CCN(C(=O)c2ccc4c(c2)C(NC(=O)c2ccccc2Cl)CC4)C3)c(C)n1 (stereo not drawn) [IND_CC-565, 2-Chloro-N-[6-[8-[(1-ethyl-3-methyl-1H-pyrazol-4-yl)-methyl]-2,8-diazaspiro[4.5]decane-2-carbonyl]-2,3-dihydro-1H-inden-1-yl]-benzamide] | 68% |
| O=C(c1ccc2c(c1)C(NS(=O)(=O)c1ccccc1Cl)CC2)N1CCC2(CCN(c3ccncc3)CC2)C1 (stereo not drawn) [Ind_CC-089, 2-chloro-N-[6-(8-pyridin-4-yl-3,8-diazaspiro[4.5]decane-3-carbonyl)-2,3-dihydro-1H-inden-1-yl]-benzenesulfonic acid amide] | 100% |
| CC(C)(C)CC(=O)NC1CCc2ccc(C(=O)N3CCC4(CC3)CCN(c3ccncc3)C4)cc21 (stereo not drawn) [IND_CC-373, 3,3-Dimethyl-N-[6-(2-pyridin-4-yl-2,8-diazaspiro[4.5]decane-8-carbonyl)-2,3-dihydro-1H-inden-1-yl]-butyramide] | 102% |
| Cc1noc(C)c1CN1CCC2(CC1)CCN(C(=O)c1ccc3c(c1)C(NC(=O)c1c(F)cccc1Cl)CC3)C2 (stereo not drawn) [IND_CC-738, 2-Chloro-N-[6-[8-[(3,5-dimethyl-isoxazol-4-yl)-methyl]-2,8-diazaspiro-[4.5]decane-2-carbonyl]-2,3-dihydro-1H-inden-1-yl]-6-fluoro-benzamide] | 89% |
| O=C(NC1CCc2ccc(CC(=O)N3CCC4(CCN(Cc5ccc6ncccc6c5)CC4)C3)cc21)c1ccccc1Cl (stereo not drawn) [IND_CC-804, 2-Chloro-N-[6-[2-oxo-2-[8-(quinolin-6-yl-methyl)-3,8-diazaspiro[4.5]decan-3-yl]-ethyl]-2,3-dihydro-1H-inden-1-yl]-benzamide] | 61% |
| O=C(NC1CCc2ccc(C(=O)N3CCC4(CCN(Cc5c[nH]cn5)CC4)CC3)cc21)c1cc(Cl)ccc1F (stereo not drawn) [IND_CC-625, 5-Chloro-2-fluoro-N-[6-[9-(1H-imidazol-4-yl-methyl)-3,9-diazaspiro[5.5]undecane-3-carbonyl]-2,3-dihydro-1H-inden-1-yl]-benzamide] | 50% |
| O=C(NC1CCc2ccc(C(=O)N3CCC4(CCN(CCc5ccccc5)CC4)C3)cc21)c1c(F)cccc1Cl (stereo not drawn) [IND_CC-780, 2-Chloro-6-fluoro-N-[6-(8-phenethyl-2,8-diazaspiro[4.5]decane-2-carbonyl)-2,3-dihydro-1H-inden-1-yl]-benzamide] | 101% |
| CN(C)c1ncc(CN2CCC3(CC2)CCN(C(=O)c2ccc4c(c2)C(NC(=O)c2cc(C(F)(F)F)ccc2Cl)CC4)C3)cn1 (stereo not drawn) [IND_CC-683, 2-Chloro-N-[6-[8-[(2-dimethylamino-pyrimidin-5-yl)-methyl]-2,8-diazaspiro[4.5]-decane-2-carbonyl]-2,3-dihydro-1H-inden-1-yl]-5-(trifluoromethyl)-benzamide] | 62% |
| O=C(NC1CCc2ccc(C(=O)N3CCC4(CCN(c5ccncc5)CC4)C3)cc21)c1ccc(C(F)(F)F)cn1 (stereo not drawn) [IND_CC-396, N-[6-(8-Pyridin-4-yl-2,8-diazaspiro[4.5]decane-2-carbonyl)-2,3-dihydro-1H-inden-1-yl]-5-(trifluoromethyl)-pyridine-2-carboxylic acid amide] | 81% |
| CCCNC(=O)N1CCC2(CC1)CCN(C(=O)c1ccc3c(c1)C(NC(=O)c1ccccc1Cl)CC3)CC2 (stereo not drawn) [IND_CC-704, 3-[3-[(2-Chloro-benzoyl)amino]-2,3-dihydro-1H-indene-5-carbonyl]-N-propyl-3,9-diazaspiro[5.5]undecane-9-carboxylic acid amide] | 91% |
| O=C(NC1CCc2ccc(C(=O)N3CCC4(CC3)CCN(c3ccncc3)CC4)cc21)c1ccc(F)cc1C(F)(F)F (stereo not drawn) [IND_CC-379, 4-Fluoro-N-[6-(9-pyridin-4-yl-3,9-diazaspiro[5.5]undecane-3-carbonyl)-2,3-dihydro-1H-inden-1-yl]-2-(trifluoromethyl)-benzamide] | 103% |
| O=C(NC1CCc2ccc(C(=O)N3CCC4(CC3)CCN(c3ccncc3)CC4)cc21)c1cnccn1 (stereo not drawn) [IND_CC-397, N-[6-(9-Pyridin-4-yl-3,9-diazaspiro[5.5]undecane-3-carbonyl)-2,3-dihydro-1H-inden-1-yl]-pyrazine-2-carboxylic acid amide] | 68% |

Same assay, conditions: rat B1R

| Molecule | % Inhibition (rat B1R) at 10 μM |
| --- | --- |
| 2-Methyl-N-[6-(8-pyridin-4-yl-2,8-diazaspiro[4.5]decane-2-carbonyl)-2,3-dihydro-1H-inden-1-yl]-benzamide [IND_CC-358] | 104% |
